Read-outs that look alike come from different tables or passages of the source.
What was measured:
[1] = target: T1, 5-HT2c receptor (Homo sapiens, UniProt P28335); assay: FLIPR antagonist assay at the 5-HT2c receptor (analogous to Example 3); type: cell-based
T1 sequence (P28335 33-458): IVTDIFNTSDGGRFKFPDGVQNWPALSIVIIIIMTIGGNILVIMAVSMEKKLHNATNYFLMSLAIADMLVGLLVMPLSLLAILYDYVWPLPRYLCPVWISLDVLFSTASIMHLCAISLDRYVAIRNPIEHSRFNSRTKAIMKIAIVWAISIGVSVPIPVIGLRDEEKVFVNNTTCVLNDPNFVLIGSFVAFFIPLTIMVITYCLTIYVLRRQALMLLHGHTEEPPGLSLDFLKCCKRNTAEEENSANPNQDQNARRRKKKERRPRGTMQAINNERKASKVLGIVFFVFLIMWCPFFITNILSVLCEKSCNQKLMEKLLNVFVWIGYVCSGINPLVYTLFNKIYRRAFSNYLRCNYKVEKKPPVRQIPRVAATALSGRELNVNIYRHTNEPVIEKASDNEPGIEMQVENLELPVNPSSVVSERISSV

[2] = target: T1, 5-HT2c receptor; assay: FLIPR agonist assay at the 5-HT2c receptor (analogous to Example 2); type: cell-based; settings: for agonist activity at the 5-HT2c receptor: FLIPR
[3] = target: T2, 5-HT2B receptor (Homo sapiens, UniProt P41595); assay: FLIPR assay, agonist selectivity at the 5-HT2B receptor; type: cell-based
T2 construct: Millipore, Inc. (GPCR Profiler Service Laboratory, St. Charles, Mo.)
T2 sequence (P41595 whole entry): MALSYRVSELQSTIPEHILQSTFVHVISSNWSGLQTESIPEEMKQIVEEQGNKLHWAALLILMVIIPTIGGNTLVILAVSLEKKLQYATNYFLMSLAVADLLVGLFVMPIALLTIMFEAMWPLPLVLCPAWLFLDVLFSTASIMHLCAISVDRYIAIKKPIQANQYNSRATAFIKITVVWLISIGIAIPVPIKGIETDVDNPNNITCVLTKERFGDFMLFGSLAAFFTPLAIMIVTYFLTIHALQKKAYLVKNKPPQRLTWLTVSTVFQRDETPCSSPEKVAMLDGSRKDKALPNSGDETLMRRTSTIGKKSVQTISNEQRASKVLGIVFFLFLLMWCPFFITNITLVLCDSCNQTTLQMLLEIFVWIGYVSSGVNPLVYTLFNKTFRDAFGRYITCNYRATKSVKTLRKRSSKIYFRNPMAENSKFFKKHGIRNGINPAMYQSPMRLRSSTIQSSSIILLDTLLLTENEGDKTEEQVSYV
Procedure: A FLIPR assay was conducted to monitor agonist selectivity for 1-methyl-dihydroergotamine against the 5-HT2B receptor. The assay was completed with an eight point, 4 fold serial dilution series starting with 10 μM concentration to obtain full dose response curve. Percentage activation values were determined for 1-methyl-dihydroergotamine on the 5-HT2B receptor. Agonist selectivity was determined upon initial addition of for 1-methyl-dihydroergotamine followed by a 5 minute incubation at 25° C. Following compound incubation, reference agonists were added at EC80. Agonist percentage activation determinations were obtained by assaying 1-methyl-dihydroergotamine and referencing the Emax control for the 5-HT2B receptor. The assay was performed by GPCR Profiler™ Service Laboratory, St. Charles, Mo., Millipore, Inc.

[4] = target: T2, 5-HT2B receptor; assay: FLIPR assay, antagonist selectivity at the 5-HT2B receptor; type: cell-based; settings: FIG. 2
Procedure: A FLIPR assay was conducted to monitor antagonist selectivity for 1-methyl-dihydroergotamine against the 5-HT2B receptor. The assay was completed with an eight point, 4 fold serial dilution series starting with 10 μM concentration to obtain full dose response curve. Percentage inhibition values were determined for 1-methyl-dihydroergotamine on the 5-HT2B receptor. Antagonist percentage inhibition determinations were obtained by assaying 1-methyl-dihydroergotamine and referencing the Emax control for the 5-HT2B receptor. The assay above was performed by GPCR Profiler™ Service Laboratory, St. Charles, Mo., Millipore, Inc.

[5] = target: 5-HT7 receptor (Homo sapiens, UniProt P34969); assay: cAMP HTRF assay, antagonist activity at 5-HT7 (analogous to Example 6); type: cell-based; settings: percent of control response to 300 nM serotonin, FIG. 4
Chain of 5-HT7 receptor (P34969 whole entry): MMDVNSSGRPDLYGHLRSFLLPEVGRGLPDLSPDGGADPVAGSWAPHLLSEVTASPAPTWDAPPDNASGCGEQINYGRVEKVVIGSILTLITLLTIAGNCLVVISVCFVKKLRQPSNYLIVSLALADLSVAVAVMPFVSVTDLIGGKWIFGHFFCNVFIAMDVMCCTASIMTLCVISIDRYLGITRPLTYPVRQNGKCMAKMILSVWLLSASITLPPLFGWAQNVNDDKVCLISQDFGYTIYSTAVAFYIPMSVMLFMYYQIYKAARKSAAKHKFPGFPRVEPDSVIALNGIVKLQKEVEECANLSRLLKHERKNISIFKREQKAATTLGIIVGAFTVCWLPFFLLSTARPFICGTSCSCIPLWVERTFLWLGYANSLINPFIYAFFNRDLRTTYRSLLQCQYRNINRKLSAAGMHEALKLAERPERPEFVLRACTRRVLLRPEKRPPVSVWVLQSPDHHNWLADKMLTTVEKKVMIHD
Procedure: (§1) A cell based assay (cAMP modulation with HTRF detection) was conducted to monitor agonist activity of test compounds at the 5-HT1A receptor, summarized in FIG. 3. Test compounds were serially diluted to provide a wide concentration range sufficient to calculate EC50. The cAMP concentration was determined and results are expressed as a percent of the control response to 100 nM 8-OH-DPAT (control agonist).
The assay was performed analogously to the assay described in Example 6. Antagonist activity of test compounds at the 5-HT7 receptor, using serotonin as a control reference agonist, was measured. Test compounds were serially diluted to provide a wide concentration range sufficient to calculate IC50. The results are expressed as a percent of the control response to 300 nM serotonin.

[6] = target: 5-HT1D receptor (Homo sapiens, UniProt P28221); assay: Membrane based GTPγS assay, agonist activity at 5-HT1D; type: biochemical; settings: 5-CT reference agonist, FIG. 6
Chain of 5-HT1D receptor (P28221 whole entry): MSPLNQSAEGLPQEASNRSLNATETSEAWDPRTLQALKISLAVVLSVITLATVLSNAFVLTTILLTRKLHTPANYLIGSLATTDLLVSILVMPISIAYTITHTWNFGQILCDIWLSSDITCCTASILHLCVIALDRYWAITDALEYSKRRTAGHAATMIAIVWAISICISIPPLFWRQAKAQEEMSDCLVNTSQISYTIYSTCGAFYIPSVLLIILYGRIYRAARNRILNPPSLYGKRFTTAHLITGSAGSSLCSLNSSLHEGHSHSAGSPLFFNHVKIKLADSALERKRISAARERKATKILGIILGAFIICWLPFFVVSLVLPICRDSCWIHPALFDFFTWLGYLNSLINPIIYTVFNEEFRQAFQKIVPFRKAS

[7] = target: 5-HT1B receptor (Homo sapiens, UniProt P28222); assay: Membrane based GTPγS assay, agonist activity at 5-HT1B; type: biochemical; settings: 5-CT reference agonist, FIG. 5
Chain of 5-HT1B receptor (P28222 whole entry): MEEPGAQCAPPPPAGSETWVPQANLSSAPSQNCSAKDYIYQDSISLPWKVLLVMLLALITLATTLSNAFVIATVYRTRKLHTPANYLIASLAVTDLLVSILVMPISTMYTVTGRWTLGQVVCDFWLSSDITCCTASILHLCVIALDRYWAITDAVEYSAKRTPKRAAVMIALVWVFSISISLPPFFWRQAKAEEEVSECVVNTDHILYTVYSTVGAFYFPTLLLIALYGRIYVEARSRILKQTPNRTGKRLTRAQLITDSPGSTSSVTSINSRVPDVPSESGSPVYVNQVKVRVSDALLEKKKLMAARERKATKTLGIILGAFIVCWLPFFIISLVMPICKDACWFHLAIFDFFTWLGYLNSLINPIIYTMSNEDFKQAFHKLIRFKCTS
Procedure: A membrane based GTPγS assay was conducted to monitor agonist activity of test compounds at the 5-HT1B receptor, summarized in FIG. 5. Test compounds were serially diluted to provide a wide concentration range sufficient to calculate EC50. The results are expressed as a percent of activation. 5-CT was used as a reference agonist.

[8] = target: T3, 5-HT1A receptor (Homo sapiens, UniProt P08908); assay: Cell based assay (cAMP modulation with HTRF detection), agonist activity at 5-HT1A; settings: percent of control response to 100 nM 8-OH-DPAT, FIG. 3
T3 sequence (P08908 1-422): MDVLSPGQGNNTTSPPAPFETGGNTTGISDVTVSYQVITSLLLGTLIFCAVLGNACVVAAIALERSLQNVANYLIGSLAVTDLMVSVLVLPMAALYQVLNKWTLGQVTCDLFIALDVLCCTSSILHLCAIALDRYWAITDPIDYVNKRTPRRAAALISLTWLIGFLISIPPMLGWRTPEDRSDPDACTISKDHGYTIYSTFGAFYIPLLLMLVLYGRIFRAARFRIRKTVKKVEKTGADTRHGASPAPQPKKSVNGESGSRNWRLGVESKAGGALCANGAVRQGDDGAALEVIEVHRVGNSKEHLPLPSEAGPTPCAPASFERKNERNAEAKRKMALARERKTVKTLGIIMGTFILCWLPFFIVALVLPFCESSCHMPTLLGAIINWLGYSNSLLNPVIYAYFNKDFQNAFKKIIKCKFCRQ
Procedure: as §1

[9] = FLIPR, FIG. 1, read-out: EC50, agonism of the 5-HT2B receptor

CNS(=O)(=O)Cc1ccc2[nH]cc(CCN(C)C)c2c1 [sumatriptan]
antagonist activity at the 5-HT2c receptor ([1]; FLIPR): no antagonist activity | agonist activity at the 5-HT2c receptor [2]: no agonist activity

CN1C[C@H](C(=O)N[C@]2(C)O[C@@]3(O)[C@@H]4CCCN4C(=O)[C@H](Cc4ccccc4)N3C2=O)C=C2c3cccc4[nH]cc(c34)C[C@H]21 [ergotamine]
EC50 [2]: 5000 nM | EC50 [3]: 160 nM

CN1CC(C(=O)N[C@]2(C)O[C@@]3(O)C4CCCN4C(=O)[C@H](Cc4ccccc4)N3C2=O)CC2c3cccc4c3c(cn4C)CC21 (stereo partly shown) [MAP0057, 1-Methyl-Dihydroergotamine]
IC50 [4]: 16 nM | IC50 [5]: 69 nM | EC50 [6]: 0.45 nM | EC50 [7]: 1.02 nM | melting point: 216 to 218 °C | EC50 [8]: 16 nM | IC50 [1]: 460 nM | agonist activity at the 5-HT2c receptor [2]: no agonist activity | agonist activity at the 5-HT2B receptor ([3]; FLIPR, dilution series starting with 10 μM, FIG. 1): no agonist activity

CC(N)Cc1c[nH]c2ccc(O)cc12 (stereo not drawn) [alpha-Me-5HT]
EC50 [3, 9]: 0.2 nM

CCCN1C[C@H](CSC)C[C@@H]2c3cccc4[nH]cc(c34)C[C@H]21 [pergolide]
agonist activity at the 5-HT2c receptor [2]: no agonist activity | EC50 [3, 9]: 10 nM

CN1C[C@H](C(=O)N[C@]2(C)O[C@@]3(O)[C@@H]4CCCN4C(=O)[C@H](Cc4ccccc4)N3C2=O)C[C@@H]2c3cccc4[nH]cc(c34)C[C@H]21 [dihydroergotamine]
IC50 [1]: 280 nM | agonist activity at the 5-HT2c receptor [2]: no agonist activity | EC50 [3]: 260 nM

From patent US8710092B2, “Substituted indolo 4,3 FG quinolines useful for treating migraine” (Map Pharmaceuticals, Inc., priority 2009, dated 2014)
